Tested on: 485176-168-R4-J1-PDC complex spheroid growth
Test: Anticancer human tumor 485176-168-R4-J1-PDC patient-derived pancreatic adenocarcinoma cell line growth inhibition [RAS]
Settings: for viability, T/C: stronger effect = lower value; active = viability on the fitted dose curve at most 10% of control; inactive = the rest
Outline: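 Agents were tested in combination matrices in half-log decrements from a top concentration at or near clinical Cmax (10 microM if undetermined). Targets were multi-cell spheroids of tumour lines plus HUVEC and MSC stromal cells.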
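Also: spheroids exposed to compounds for seven days before readout.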
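For viability, T/C in this document: luminescence viability expressed relative to DMSO vehicle wells set as 100%.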

CC1(C)CCC(Nc2ncc(C(F)(F)F)c(-c3c[nH]c4c(P(C)(C)=O)c(C#N)ccc34)n2)CN1 (stereo unspecified) + CCn1c(-c2cccnc2C(C)OC)c2c3cc(ccc31)N1CCOC(CC(NC(=O)C(C(C)C)N(C)C(=O)C3(F)CCN(C(=O)C#CC(C)(C)N(C)C)CC3)C(=O)N3CCCC(N3)C(=O)OCC(C)(C)C2)C1
13.2 nM: IC50 (curve of first compound, second compound 0.3 µM)
> 300 nM: IC50 (curve of first compound, second compound 0.000949 µM) | IC50 (curve of first compound, second compound 0.003 µM)
20.8 nM: IC50 (curve of first compound, second compound 0.0949 µM)
26.5 nM: IC50 (curve of first compound, second compound 0.03 µM)
66.8 nM: IC50 (curve of first compound, second compound 0.00949 µM)
inactive: viability, T/C (second compound 0.000949 µM, first compound 0.000949 µM) 91.9% | viability, T/C (second compound 0.000949 µM, first compound 0.003 µM) 93.3% | viability, T/C (second compound 0.000949 µM, first compound 0.00949 µM) 86.8% | viability, T/C (second compound 0.000949 µM, first compound 0.03 µM) 59.5% | viability, T/C (second compound 0.000949 µM, first compound 0.0949 µM) 52.8% | viability, T/C (second compound 0.000949 µM, first compound 0.3 µM) 54.1% | viability, T/C (second compound 0.003 µM, first compound 0.000949 µM) 99.1% | viability, T/C (second compound 0.003 µM, first compound 0.003 µM) 90.7% | viability, T/C (second compound 0.003 µM, first compound 0.00949 µM) 87.5% | viability, T/C (second compound 0.003 µM, first compound 0.03 µM) 58.3% | viability, T/C (second compound 0.003 µM, first compound 0.0949 µM) 54.5% | viability, T/C (second compound 0.003 µM, first compound 0.3 µM) 51.7% | viability, T/C (second compound 0.00949 µM, first compound 0.000949 µM) 97.6% | viability, T/C (second compound 0.00949 µM, first compound 0.003 µM) 91% | viability, T/C (second compound 0.00949 µM, first compound 0.00949 µM) 82.2% | viability, T/C (second compound 0.00949 µM, first compound 0.03 µM) 54.1% | viability, T/C (second compound 0.00949 µM, first compound 0.0949 µM) 50.5% | viability, T/C (second compound 0.00949 µM, first compound 0.3 µM) 44.9% | viability, T/C (second compound 0.03 µM, first compound 0.000949 µM) 89.4% | viability, T/C (second compound 0.03 µM, first compound 0.003 µM) 112% | viability, T/C (second compound 0.03 µM, first compound 0.00949 µM) 73.5% | viability, T/C (second compound 0.03 µM, first compound 0.03 µM) 54.5% | viability, T/C (second compound 0.03 µM, first compound 0.0949 µM) 39% | viability, T/C (second compound 0.03 µM, first compound 0.3 µM) 47.9% | viability, T/C (second compound 0.0949 µM, first compound 0.000949 µM) 77.9% | viability, T/C (second compound 0.0949 µM, first compound 0.003 µM) 87.1% | viability, T/C (second compound 0.0949 µM, first compound 0.00949 µM) 67.7% | viability, T/C (second compound 0.0949 µM, first compound 0.03 µM) 42.2% | viability, T/C (second compound 0.0949 µM, first compound 0.0949 µM) 34.6% | viability, T/C (second compound 0.0949 µM, first compound 0.3 µM) 34.1% | viability, T/C (second compound 0.3 µM, first compound 0.000949 µM) 81.9% | viability, T/C (second compound 0.3 µM, first compound 0.003 µM) 69.1% | viability, T/C (second compound 0.3 µM, first compound 0.00949 µM) 58.7% | viability, T/C (second compound 0.3 µM, first compound 0.03 µM) 34% | viability, T/C (second compound 0.3 µM, first compound 0.0949 µM) 26.8% | viability, T/C (second compound 0.3 µM, first compound 0.3 µM) 30.5%

CC(=O)OC12COC1CC(O)C1(C)C(=O)C(O)C3=C(C)C(OC(=O)C(O)C(NC(=O)OC(C)(C)C)c4ccccc4)CC(O)(C(OC(=O)c4ccccc4)C21)C3(C)C (stereo unspecified) + C#Cc1c(F)ccc2cc(O)cc(-c3ncc4c(N5CC6CCC(C5)N6)nc(OCC56CCCN5CC(F)C6)nc4c3F)c12
inactive: viability, T/C (second compound 0.0316 µM, first compound 0.0316 µM) 18.5% | viability, T/C (second compound 0.0316 µM, first compound 0.1 µM) 15.3% | viability, T/C (second compound 0.0316 µM, first compound 0.316 µM) 14.6% | viability, T/C (second compound 0.0316 µM, first compound 1 µM) 13.5% | viability, T/C (second compound 0.0316 µM, first compound 3.16 µM) 18.5% | viability, T/C (second compound 0.0316 µM, first compound 10 µM) 21.8% | viability, T/C (second compound 0.1 µM, first compound 0.0316 µM) 19.1% | viability, T/C (second compound 0.1 µM, first compound 0.1 µM) 14.5% | viability, T/C (second compound 0.1 µM, first compound 0.316 µM) 13.7% | viability, T/C (second compound 0.1 µM, first compound 1 µM) 14.9% | viability, T/C (second compound 0.1 µM, first compound 3.16 µM) 19.8% | viability, T/C (second compound 0.1 µM, first compound 10 µM) 21.2% | viability, T/C (second compound 0.316 µM, first compound 0.0316 µM) 15.1% | viability, T/C (second compound 0.316 µM, first compound 0.1 µM) 12.4% | viability, T/C (second compound 0.316 µM, first compound 0.316 µM) 13.4% | viability, T/C (second compound 0.316 µM, first compound 1 µM) 11.6% | viability, T/C (second compound 0.316 µM, first compound 3.16 µM) 16.6% | viability, T/C (second compound 0.316 µM, first compound 10 µM) 19.4% | viability, T/C (second compound 1 µM, first compound 0.0316 µM) 17% | viability, T/C (second compound 1 µM, first compound 0.1 µM) 15.8% | viability, T/C (second compound 1 µM, first compound 0.316 µM) 12.8% | viability, T/C (second compound 1 µM, first compound 1 µM) 11.8% | viability, T/C (second compound 1 µM, first compound 3.16 µM) 19.2% | viability, T/C (second compound 1 µM, first compound 10 µM) 20.6% | viability, T/C (second compound 3.16 µM, first compound 0.0316 µM) 20.6% | viability, T/C (second compound 3.16 µM, first compound 0.1 µM) 16.5% | viability, T/C (second compound 3.16 µM, first compound 0.316 µM) 15.2% | viability, T/C (second compound 3.16 µM, first compound 1 µM) 13.8% | viability, T/C (second compound 3.16 µM, first compound 3.16 µM) 16.5% | viability, T/C (second compound 3.16 µM, first compound 10 µM) 20.6% | viability, T/C (second compound 10 µM, first compound 0.0316 µM) 16.5% | viability, T/C (second compound 10 µM, first compound 0.1 µM) 12.2% | viability, T/C (second compound 10 µM, first compound 0.316 µM) 13.3% | viability, T/C (second compound 10 µM, first compound 1 µM) 11.7% | viability, T/C (second compound 10 µM, first compound 3.16 µM) 16% | viability, T/C (second compound 10 µM, first compound 10 µM) 19%
< 31.6 nM: IC50 (curve of first compound, second compound 0.0316 µM) | IC50 (curve of first compound, second compound 0.1 µM) | IC50 (curve of first compound, second compound 0.316 µM) | IC50 (curve of first compound, second compound 1 µM) | IC50 (curve of first compound, second compound 3.16 µM) | IC50 (curve of first compound, second compound 10 µM)

O=C(c1ccc(F)c(F)c1Nc1ccc(I)cc1F)N1CC(O)([C@@H]2CCCCN2)C1
206 nM [middle of 4 runs]: IC50 (curve of compound)
inactive: viability, T/C (compound 0.00316 µM) 91.9% [middle of 4 runs] | viability, T/C (compound 0.01 µM) 78.6% [middle of 4 runs] | viability, T/C (compound 0.0316 µM) 71% [middle of 4 runs] | viability, T/C (compound 0.1 µM) 53.7% [middle of 4 runs] | viability, T/C (compound 0.316 µM) 51.2% [middle of 4 runs] | viability, T/C (compound 1 µM) 39.7% [middle of 4 runs]
